Test results reported in PubChem BioAssay AID2060895 (Molecular Pharmacology Branch, DTP, NCI, 2025).
“And” between values parts separate entries of the source, which are not always exact repeats. Equal entries are not always repeated.

System: PDC 899932-113-R3-J6 complex spheroid viability
Test: Anticancer human tumor 899932-113-R3-J6-PDC patient-derived melanoma cell line growth inhibition [RAS]
Conditions: for viability, T/C: stronger effect = lower value
Excerpt: RAS pathway inhibitors in Combinations in Complex Spheroids
A high-throughput screen of multi-cell type tumor spheroids was designed to identify active combinations of RAS pathway inhibitors and targeted small molecules. Complex spheroids include a stromal component modeled by human endothelial cells (HUVEC) and fibroblasts modeled by human mesenchymal stem cells (MSCs). The concentration ranges selected for each drug and investigational agent were based upon clinically achievable concentrations if the clinical Cmax of the agent was known.
Compounds. The drugs and investigational agents: abemaciclib (NSC768073), cobimetinib (NSC768068), divarasib (GDC6063, NSC841802), docetaxel (NSC628503), GDC-1971 (RLY-1971, NSC841576), gemcitabine (NSC613327), inavolisib (NSC800729), ipatasertib (NSC767898), KB-0742 (NSC834161), MRTX-1133 (NSC836407), osimertinib (NSC779217), RMC-4630 (NSC839698), RMC-6236 (NSC851965), RMC-6291 (NSC852671), Ro-3306 (NSC812927), sapanisertib (NSC764658), SN-38 (NSC673596), staurosporine (NSC755774), SY5609 (NSC837396), and tovorafenib (DAY101, NSC766906), were obtained from the National Cancer Institute (NCI) Developmental Therapeutics Program Chemical Repository. The FDA-approved anticancer drug set is available from the NCI Developmental Therapeutics Program. […] The stock solutions were prepared in dimethyl sulfoxide (DMSO, Sigma-Aldrich, St. Louis, MO, cat. D2650) at 800-fold the tested concentration and stored at -70 degrees C prior to their use. All drugs and investigational agents were tested over a range starting from a high concentration at or near the clinical Cmax and decreasing in half-log increments. If the clinical Cmax for an agent had not been determined, the highest concentration tested was 10 microM.
Cell Culture. All cells were maintained in an incubator at 37 degrees C and 5% CO2 with 95% humidity. The PDC lines were cultured according to standard operating procedures established by the NCI PDMR. All PDCs were thawed and cultured in Matrigel-coated flasks prepared with a working solution of 1X Ham's F-12 nutrient mix, without supplementation (Invitrogen, Waltham, MA, cat. 11765054), 100 U/mL penicillin-streptomycin (Invitrogen, cat. 15140122), and 2.5% Matrigel (Corning Inc., Corning, NY, cat. 354248) for the first three passages. The 362531-283-R-J2-PDC and 782815-120-R-J1-PDC lines were cultured in 6C/Colon 1B media, which includes advanced DMEM/F-12 (Thermo Fisher Scientific, cat. 12634028), 10 mM HEPES (Thermo Fisher Scientific, cat. 15630080), 1X GlutaMAX supplement (Thermo Fisher Scientific, cat. 35050061), 0.1 mg/mL primocin (InvivoGen, San Diego, CA, cat. ant-pm-2), 10% defined fetal bovine serum, heat inactivated (HyClone Laboratories Inc., Logan, UT, cat. SH30070.03HI), 50% L-WRN conditioned media (ATCC, cat. CRL-3276), 1.25 mM N-Acetyl-L-cysteine (Sigma-Aldrich, cat. A9165), 10 mM nicotinamide (Sigma-Aldrich, cat. N0636), 1X B-27 supplement (Thermo Fisher Scientific, cat. 17504044), 1X N-2 supplement (Thermo Fisher Scientific, cat. 17502048), 50 ng/mL human EGF (Thermo Fisher Scientific, cat. PHG0311), and 10 microM Y-27632 dihydrochloride (Tocris Bioscience, cat. 1254). The K12877-001-R-J1-PDC line was cultured in 6I media, which includes all 6C/Colon 1B media plus 10 ng/mL human FGF-10 (PeproTech, cat. 100-26), 1 ng/mL human FGF-2 (PeproTech, cat. 100-18B), 1 µM prostaglandin E2 (Tocris Bioscience, cat. 2296), […] hydrocortisone (Sigma-Aldrich, cat. H4001), and […] bovine insulin (Sigma-Aldrich, cat. I6634). The K86415-001-R-J1-PDC line was cultured in 6D media, which includes all 6C/Colon 1B media components minus the L-WRN conditioned media. The 485176-168-R4-J1-PDC was cultured in PANC media, which includes all 6C/Colon 1B media plus 100 ng/mL human FGF-10 (PeproTech, cat. 100-26), 500 nM SB-431542 (Selleckchem, cat. S1067), and 10 nM gastrin (Tocris Bioscience, cat. 3006). […]
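Wherever viability, T/C is given: spheroids exposed to agents for seven days before readout; 100% = DMSO vehicle control wells.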

CC(C)n1nc(-c2ccc3oc(N)nc3c2)c2c(N)ncnc21
viability, T/C (compound 0.000316 µM): 107% [middle of 4 runs]
viability, T/C (compound 0.001 µM): 102% [middle of 4 runs]
viability, T/C (compound 0.00316 µM): 116% [middle of 4 runs]
viability, T/C (compound 0.0316 µM): 71.8% [middle of 4 runs]
IC50 (curve of compound): > 0.1 µM and 0.076 µM and 0.0693 µM

CCN1CCN(Cc2ccc(Nc3ncc(F)c(-c4cc(F)c5nc(C)n(C(C)C)c5c4)n3)nc2)CC1 + CCn1c(-c2cccnc2C(C)OC)c2c3cc(ccc31)N1CCOC(CC(NC(=O)C(C(C)C)N(C)C(=O)C3(F)CCN(C(=O)C#CC(C)(C)N(C)C)CC3)C(=O)N3CCCC(N3)C(=O)OCC(C)(C)C2)C1
IC50 (curve of first compound, second compound 0.000949 µM): > 1 µM
IC50 (curve of first compound, second compound 0.003 µM): 0.6 µM
IC50 (curve of first compound, second compound 0.00949 µM): 0.51 µM
IC50 (curve of first compound, second compound 0.03 µM): 0.52 µM
IC50 (curve of first compound, second compound 0.0949 µM): 0.641 µM
IC50 (curve of first compound, second compound 0.3 µM): > 1 µM
viability, T/C (second compound 0.000949 µM, first compound 0.00316 µM): 105%
viability, T/C (second compound 0.000949 µM, first compound 0.01 µM): 104%
viability, T/C (second compound 0.000949 µM, first compound 0.0316 µM): 99.5%
viability, T/C (second compound 0.000949 µM, first compound 0.1 µM): 82.7%
viability, T/C (second compound 0.000949 µM, first compound 0.316 µM): 52.9%
viability, T/C (second compound 0.000949 µM, first compound 1 µM): 52.1%
viability, T/C (second compound 0.003 µM, first compound 0.00316 µM): 108%
viability, T/C (second compound 0.003 µM, first compound 0.01 µM): 99.6%
viability, T/C (second compound 0.003 µM, first compound 0.0316 µM): 96.1%
viability, T/C (second compound 0.003 µM, first compound 0.1 µM): 84.2%
viability, T/C (second compound 0.003 µM, first compound 0.316 µM): 57.6%
viability, T/C (second compound 0.003 µM, first compound 1 µM): 43.1%
viability, T/C (second compound 0.00949 µM, first compound 0.00316 µM): 105%
viability, T/C (second compound 0.00949 µM, first compound 0.01 µM): 106%
viability, T/C (second compound 0.00949 µM, first compound 0.0316 µM): 96.6%
viability, T/C (second compound 0.00949 µM, first compound 0.1 µM): 85.6%
viability, T/C (second compound 0.00949 µM, first compound 0.316 µM): 52.4%
viability, T/C (second compound 0.00949 µM, first compound 1 µM): 45.4%
viability, T/C (second compound 0.03 µM, first compound 0.00316 µM): 103%
viability, T/C (second compound 0.03 µM, first compound 0.01 µM): 97.2%
viability, T/C (second compound 0.03 µM, first compound 0.0316 µM): 92.5%
viability, T/C (second compound 0.03 µM, first compound 0.1 µM): 77.7%
viability, T/C (second compound 0.03 µM, first compound 0.316 µM): 52.3%
viability, T/C (second compound 0.03 µM, first compound 1 µM): 45.5%
viability, T/C (second compound 0.0949 µM, first compound 0.00316 µM): 99.8%
viability, T/C (second compound 0.0949 µM, first compound 0.01 µM): 90.6%
viability, T/C (second compound 0.0949 µM, first compound 0.0316 µM): 88%
viability, T/C (second compound 0.0949 µM, first compound 0.1 µM): 73.1%
viability, T/C (second compound 0.0949 µM, first compound 0.316 µM): 55.7%
viability, T/C (second compound 0.0949 µM, first compound 1 µM): 46.2%
viability, T/C (second compound 0.3 µM, first compound 0.00316 µM): 91.4%
viability, T/C (second compound 0.3 µM, first compound 0.01 µM): 89.2%
viability, T/C (second compound 0.3 µM, first compound 0.0316 µM): 83.4%
viability, T/C (second compound 0.3 µM, first compound 0.1 µM): 70.5%
viability, T/C (second compound 0.3 µM, first compound 0.316 µM): 49.9%
viability, T/C (second compound 0.3 µM, first compound 1 µM): 53.3%

C[C@@H](NC(=O)c1ncnc(N)c1Cl)c1ncc(C(=O)Nc2cc(C(F)(F)F)c(Cl)cn2)s1 + C#Cc1c(F)ccc2cc(O)cc(-c3ncc4c(N5CC6CCC(C5)N6)nc(OCC56CCCN5CC(F)C6)nc4c3F)c12
IC50 (curve of first compound, second compound 0.0316 µM): 6.59 µM
IC50 (curve of first compound, second compound 0.1 µM): 6.77 µM
IC50 (curve of first compound, second compound 0.316 µM): 6.87 µM
IC50 (curve of first compound, second compound 1 µM): 7.39 µM
IC50 (curve of first compound, second compound 3.16 µM): 7.73 µM
IC50 (curve of first compound, second compound 10 µM): 6.2 µM
viability, T/C (second compound 0.0316 µM, first compound 0.0316 µM): 120%
viability, T/C (second compound 0.0316 µM, first compound 0.1 µM): 151%
viability, T/C (second compound 0.0316 µM, first compound 0.316 µM): 149%
viability, T/C (second compound 0.0316 µM, first compound 1 µM): 150%
viability, T/C (second compound 0.0316 µM, first compound 3.16 µM): 99.2%
viability, T/C (second compound 0.0316 µM, first compound 10 µM): 22.1%
viability, T/C (second compound 0.1 µM, first compound 0.0316 µM): 130%
viability, T/C (second compound 0.1 µM, first compound 0.1 µM): 133%
viability, T/C (second compound 0.1 µM, first compound 0.316 µM): 153%
viability, T/C (second compound 0.1 µM, first compound 1 µM): 151%
viability, T/C (second compound 0.1 µM, first compound 3.16 µM): 94.5%
viability, T/C (second compound 0.1 µM, first compound 10 µM): 27.2%
viability, T/C (second compound 0.316 µM, first compound 0.0316 µM): 132%
viability, T/C (second compound 0.316 µM, first compound 0.1 µM): 123%
viability, T/C (second compound 0.316 µM, first compound 0.316 µM): 145%
viability, T/C (second compound 0.316 µM, first compound 1 µM): 140%
viability, T/C (second compound 0.316 µM, first compound 3.16 µM): 94.2%
viability, T/C (second compound 0.316 µM, first compound 10 µM): 28.7%
viability, T/C (second compound 1 µM, first compound 0.0316 µM): 138%
viability, T/C (second compound 1 µM, first compound 0.1 µM): 139%
viability, T/C (second compound 1 µM, first compound 0.316 µM): 158%
viability, T/C (second compound 1 µM, first compound 1 µM): 151%
viability, T/C (second compound 1 µM, first compound 3.16 µM): 99.2%
viability, T/C (second compound 1 µM, first compound 10 µM): 32.5%
viability, T/C (second compound 3.16 µM, first compound 0.0316 µM): 124%
viability, T/C (second compound 3.16 µM, first compound 0.1 µM): 150%
viability, T/C (second compound 3.16 µM, first compound 0.316 µM): 155%
viability, T/C (second compound 3.16 µM, first compound 1 µM): 172%
viability, T/C (second compound 3.16 µM, first compound 3.16 µM): 117%
viability, T/C (second compound 3.16 µM, first compound 10 µM): 30.7%
viability, T/C (second compound 10 µM, first compound 0.0316 µM): 136%
viability, T/C (second compound 10 µM, first compound 0.1 µM): 145%
viability, T/C (second compound 10 µM, first compound 0.316 µM): 154%
viability, T/C (second compound 10 µM, first compound 1 µM): 166%
viability, T/C (second compound 10 µM, first compound 3.16 µM): 91.6%
viability, T/C (second compound 10 µM, first compound 10 µM): 20.5%
